Patent US20100197599A1, “USE OF A PEPTIDE AS A THERAPEUTIC AGENT” (priority 2007, published 2010)
No end group written: not given here.

Assays:
HIV-1IIIB = assay: HIV-1 antiviral assay in CEM-SS cells (MTS readout); conditions: positive controls
RAW 264.7 cells = assay: Phagocytosis assay (Fluorescein-labeled Escherichia coli, flow cytometry); format: cell-based, Mouse; conditions: 10 micrograms per ml, Fluorescein-labeled E. coli
Protocol: RAW 264.7 (Mouse leukaemic monocyte macrophage cell line) cells were obtained from ATCC and grown in RPMI 1640 medium containing 10% FBS. […] After the cells were incubated for additional 60 min at 37° C. and allowed to ingest the Fluorescein-labeled Escherichia coli bacteria, cells were fixed with 1% paraformaldehyde. The samples were then analyzed by flow cytometry to determine the amount of phagocytosis as a function of brightness (the greater the phagocytic activity, the more fluorescence in the macrophage population). Data are reported as % positive and the mean fluorescence intensity (MFI) of positively stained cells.

[1] = tested on: Primary Human endothelial cells (HUVEC); assay: Endothelial cell migration assay; format: cell-based; conditions: 10 micrograms per ml, 22 hours
Protocol: Thereafter, designated concentration of testing peptides—10 micrograms per ml—was added in duplicate wells.

HCMV strain AD169 = assay: HCMV plaque formation assay in MRC-5 cells; conditions: for inhibition of HCMV plaque formation as compared to the virus control experiment: 10 micrograms per ml, 7-10 days
Interleukin-4 (IL-4) = assay: Th1/Th2 cytokine profiling assay, IL-4; conditions: murine spleen cells, 10 micrograms per ml
From the text: (§1) The Balb/c mice (originated in 1923, it is a popular strain and is used in many different research disciplines. Also classified as an inbred from the production of 20 or more successive brother-sister matings, the Balb/c mouse is albino and small in size) were immunized on Days 1, 15, and 29 with Ovalbumin (Ovalbumin is the main protein found in egg white, commonly used to stimulate an immunological reaction in test animals) in PBS (5 micrograms/injection). On day 50, spleens of the mice were harvested (3 weeks after last boost with Ovalbumin). […] Thereafter, additional Ovalbumin was added to the cells at 10 micrograms/ml for in vitro restimulation of the cells. 72 hours later, cell supernatants were harvested and assayed using the Becton Dickinson Mouse Th1/Th2 Cytokine CBA Kit. This kit can be used to measure Interleukin-2 (IL-2), Interleukin-4 (IL-4), Interleukin-5 (IL-5), Interferon-γ (IFN-γ), and Tumor Necrosis Factor-α (TNF-α) protein levels in a single sample. The kit performance has been optimized for analysis of physiologically relevant concentrations (μg/ml levels) of specific cytokine proteins in tissue culture supernatants and serum samples.

[2] = tested on: hepatitis B virus (HBV) ayw strain; assay: HBV assay in HepG2-2.2.15 cells (secreted HBV DNA, TaqMan PCR); format: cell-based; conditions: HepG2-2.2.15 liver cells, 10 micrograms per ml, six days
Interferon-γ (IFN-γ) = assay: Th1/Th2 cytokine profiling assay, IFN-γ; conditions: murine spleen cells, 10 micrograms per ml; for induction of the production of IFN-γ: Ovalbumin restimulation, 72 hours
From the text: (§2) The Balb/c mice (originated in 1923, it is a popular strain and is used in many different research disciplines. Also classified as an inbred from the production of 20 or more successive brother-sister matings, the Balb/c mouse is albino and small in size) were immunized on Days 1, 15, and 29 with Ovalbumin (Ovalbumin is the main protein found in egg white, commonly used to stimulate an immunological reaction in test animals) in PBS (5 micrograms/injection). On day 50, spleens of the mice were harvested (3 weeks after last boost with Ovalbumin). […] Thereafter, additional Ovalbumin was added to the cells at 10 micrograms/ml for in vitro restimulation of the cells. 72 hours later, cell supernatants were harvested and assayed using the Becton Dickinson Mouse Th1/Th2 Cytokine CBA Kit. This kit can be used to measure Interleukin-2 (IL-2), Interleukin-4 (IL-4), Interleukin-5 (IL-5), Interferon-γ (IFN-γ), and Tumor Necrosis Factor-α (TNF-α) protein levels in a single sample.

Human A549 cells = assay: Apoptosis prevention assay (C2 ceramide, Annexin-5); format: cell-based; conditions: 10 micrograms per ml pretreatment 30 min
Interleukin-5 (IL-5) = assay: Th1/Th2 cytokine profiling assay, IL-5; conditions: murine spleen cells, 10 micrograms per ml
From the text: as §1

[3] = tested on: Tumor Necrosis Factor-α (TNF-α); assay: Th1/Th2 cytokine profiling assay, TNF-α; conditions: murine spleen cells, 10 micrograms per ml; for change of the production of TNF-alpha: Ovalbumin restimulation, 72 hours
From the text: as §2

HUVEC = assay: Endothelial tube formation assay; format: cell-based, human; conditions: 10 micrograms per ml, 20 hours
From the text: Positive control was vehicle only.

Interleukin-2 (IL-2) = assay: Th1/Th2 cytokine profiling assay, IL-2; conditions: murine spleen cells, 10 micrograms per ml
From the text: as §1

[4] = Ovalbumin restimulation, 72 hours

CC(C)(C)NC(=O)[C@@H]1CN(Cc2cccnc2)CCN1C[C@@H](O)C[C@@H](Cc1ccccc1)C(=O)N[C@H]1c2ccccc2C[C@H]1O [indinavir]
antiviral activity of positive control compounds (HIV-1IIIB): expected levels of antiviral activity

Tyr-Gly-Gly-Phe-Leu-Arg-Lys-Tyr-Pro-Lys-OH (YGGFLRKYPK-OH) [peptide 2]
induction of phagocytosis as compared to the control experiment (RAW 264.7 cells): 54.3%
induction of the migration of human endothelial cells [1]: 11%
inhibition of HCMV plaque formation as compared to the virus control experiment (HCMV strain AD169): 6.9%
IL-4 spleen cells; TH2 response (% of control) (Interleukin-4 (IL-4)): 170.6 % of control
induction of the production of IL-4 (Interleukin-4 (IL-4); [4]): 70.6%
inhibition of HBV replication as compared to the virus control infection [2]: no effect
IFNγ spleen cells; TH1 response (% of control) (Interferon-γ (IFN-γ)): 130.3 % of control
induction of the production of IFN-γ (Interferon-γ (IFN-γ)): 30.3%
reduction of the ceramide-induced apoptosis on human lung cells (Human A549 cells): 17.9%
IL-5 spleen cells; TH2 response (% of control) (Interleukin-5 (IL-5)): 67.5 % of control
change of the production of IL-5 (Interleukin-5 (IL-5); [4]): did not significantly change
TNF-a spleen cells; TH1 response (% of control) [3]: 101.0 % of control
change of the production of TNF-alpha [3]: did not significantly change
inhibition of the tube formation of human endothelial cells (HUVEC): 5%
IL-2 spleen cells (% of control) (Interleukin-2 (IL-2)): 141.5 % of control
induction of the production of IL-2 (Interleukin-2 (IL-2); [4]): 41.5%

Met-Ala-Pro-Arg-Gly-Phe-Ser-Cys-Leu-Leu-Leu-Leu-Thr-Ser-Glu-Ile-Asp-Leu-Pro-Val-Lys-Arg-Arg-Ala-OH (MAPRGFSCLLLLTSEIDLPVKRRA-OH) [peptide 1]
induction of phagocytosis as compared to the control experiment (RAW 264.7 cells): 94.3%
inhibition of the migration of human endothelial cells [1]: 3%
inhibition of HCMV plaque formation as compared to the virus control experiment (HCMV strain AD169): 3.2%
IL-4 spleen cells; TH2 response (% of control) (Interleukin-4 (IL-4)): 75.1 % of control
change of the production of IL-4 (Interleukin-4 (IL-4); [4]): did not significantly change
inhibition of HBV replication as compared to the virus control infection [2]: 3.9%
IFNγ spleen cells; TH1 response (% of control) (Interferon-γ (IFN-γ)): 122.3 % of control
induction of the production of IFN-γ (Interferon-γ (IFN-γ)): 22.3%
reduction of the ceramide-induced apoptosis on human lung cells (Human A549 cells): 10.7%
IL-5 spleen cells; TH2 response (% of control) (Interleukin-5 (IL-5)): 63.5 % of control
decrease of the production of IL-5 (Interleukin-5 (IL-5); [4]): 36.5%
TNF-a spleen cells; TH1 response (% of control) [3]: 104.2 % of control
change of the production of TNF-alpha [3]: did not significantly change
induction of the tube formation of human endothelial cells (HUVEC): 23%
IL-2 spleen cells (% of control) (Interleukin-2 (IL-2)): 50.6 % of control
decrease of the production of IL-2 (Interleukin-2 (IL-2); [4]): 49.4%

Nc1nc(O)c2ncn(COC(CO)CO)c2n1 [Ganciclovir, reference compound]
antiviral activity of positive control compound (HCMV strain AD169; HCMV AD169, positive control): expected levels of antiviral activity

Cc1cn([C@H]2C[C@H](N=[N+]=[N-])[C@@H](CO)O2)c(=O)[nH]c1=O [AZT]
antiviral activity of positive control compounds (HIV-1IIIB): expected levels of antiviral activity
